Test results as given in the NIST ThermoML archive (doi:10.1021/je401057z).
± gives the expanded uncertainty stated by the source.

Settings: Liquid

## Cc1ccccc1C [1,2-dimethylbenzene]
456.1 K
  vapor or sublimation pressure: 250 ± 10 kPa

## Cc1cccc(C)c1 [1,3-dimethylbenzene]
450.1 K
  vapor or sublimation pressure: 250 ± 10 kPa

## Cc1ccc(C)cc1 [1,4-dimethylbenzene]
410.78 K, Ebulliometric method (Recirculating still)
  vapor or sublimation pressure: 100.04 ± 3.2 kPa
412.63 K, Ebulliometric method (Recirculating still)
  vapor or sublimation pressure: 105 ± 3.4 kPa
419.48 K, Ebulliometric method (Recirculating still)
  vapor or sublimation pressure: 124.93 ± 4 kPa
433.57 K, Ebulliometric method (Recirculating still)
  vapor or sublimation pressure: 174.88 ± 5.6 kPa
439.37 K, Ebulliometric method (Recirculating still)
  vapor or sublimation pressure: 199.86 ± 6.4 kPa
444.66 K, Ebulliometric method (Recirculating still)
  vapor or sublimation pressure: 224.86 ± 7.2 kPa
449.56 K, Ebulliometric method (Recirculating still)
  vapor or sublimation pressure: 250.04 ± 8 kPa
449.6 K, Ebulliometric method (Recirculating still)
  vapor or sublimation pressure: 250 ± 8 kPa

## CC(C)CC(C)(C)C [2,2,4-trimethylpentane]
371.55 K
  vapor or sublimation pressure: 100.05 ± 3.5 kPa
373.4 K
  vapor or sublimation pressure: 104.94 ± 3.7 kPa
379.8 K
  vapor or sublimation pressure: 124.9 ± 4.3 kPa
386.94 K
  vapor or sublimation pressure: 149.96 ± 5.1 kPa
393.14 K
  vapor or sublimation pressure: 174.7 ± 6 kPa
398.64 K
  vapor or sublimation pressure: 199.94 ± 6.8 kPa
403.68 K
  vapor or sublimation pressure: 224.91 ± 7.6 kPa
408.28 K
  vapor or sublimation pressure: 249.95 ± 8.4 kPa
408.3 K
  vapor or sublimation pressure: 250 ± 8 kPa

## CCc1ccccc1 [ethylbenzene]
447.2 K
  vapor or sublimation pressure: 250 ± 10 kPa
